Assay results published in US5432165A, “Methods for the treatment of infection caused by Hepatitis B virus (HBV)” (priority 1992, dated 1995).
Values joined by “and” are separate entries in the source; they are usually repeats but may differ in a detail not shown here. Equal entries are not always repeated. “Also recorded” adds a separate entry of the source.

Columns and labels:
[1] = tested on: hepatitis B virus; assay: Oral FIAU in immune-competent patients with chronic hepatitis B: HBV DNA and HBV DNA polymerase; format: in vivo, human; details: for Mean % change of HBV DNA at Week 4 of FIAU: n = 6
Method: To assess the antiviral activity of FIAU against hepatitis B virus, up to 24 patients with chronic hepatitis B will be treated with oral FIAU in doses of 0.05, 0.10, 0.25 or 0.50 mg/kg-day in three divided doses daily for four weeks. Six patients, of which only three can be previous interferon failures, will be initially dosed at 0.10 mg/kg-day. Depending on tolerance and efficacy, the next six patients will be entered at 0.05 or 0.25 mg/kg-day.
This study is an open and uncontrolled evaluation of oral FIAU in the treatment of chronic hepatitis B. Up to four dose cohorts of six patients each will be sequentially studied starting at 0.10 mg/kg-day. Patients will take the medication three times per day for four weeks. Depending on efficacy and tolerance, the next dose cohort will be either 0.05 or 0.25 mg/kg-day.
Patients who meet the eligibility criteria will start on therapy, generally as outpatients one to two weeks after the in-hospital evaluation. Up to four doses will be sequentially evaluated. The initial six patients will receive 0.10 mg/kg-day for four weeks.
If tolerance is adequate at 0.10 mg/kg-day, six patients will receive 0.25 mg/kg-day for four weeks. The final six patients will receive 0.50 mg/kg-day for four weeks if needed for better efficacy and if tolerance has been adequate at the lower doses.
The FIAU will be administered by mouth in three equally divided doses daily. FIAU is provided as a 1 mg/ml syrup. Patients will be instructed on how to measure and self-administer the FIAU solution using oral dosing syringes. Dosing compliance will be monitored by measuring the residual FIAU solution returned at the weekly outpatient visit.
Activity of FIAU against hepatitis B virus will be assessed by monitoring levels of HBV DNA. An inhibition of HBV DNA activity of at least about 50% by the fourth week of treatment will be considered significant antiviral activity. The dose levels of FIAU will be compared based upon the degree of inhibition of serum levels of HBV DNA.

[2] = Oral FIAU in immune-competent patients with chronic hepatitis B: adverse experiences; format: in vivo, human
Method: Consecutively qualifying patients will be used for each dose group and patients will not be assigned to dose based on either disease severity or expected tolerance. Tolerance will be determined with antiemetic therapy given concomitantly as necessary should a patient experience sustained nausea or two or more episodes of vomiting. Compazine, 10 mg p.o. Q6H or 25 mg p.r. Q12H will be used.
The side effects that will be monitored will include gastrointestinal irritation, bone marrow suppression, neurologic, and muscular toxicity.

[3] = tested on: HSV-1; details: read-out: in vitro ED90; cited from earlier work
[4] = tested on: CMV; details: read-out: in vitro ED90; cited from earlier work
[5] = typical; read-out: cellular toxicity concentration (ID50); cited from earlier work
[6] = 0.1 mpk, Week 2, individual patients 1A-6A
[7] = 0.1 mpk, Week 3, individual patients 1A-6A
[8] = 0.1 mpk, Week 4, individual patients 1A-6A
[9] = 0.1 mpk, Week 5 (after 4-week treatment), individual patients 1A-6A
[10] = 0.25 mpk, Day 1 (initial level), individual patients 1B-6B
[11] = 0.25 mpk, Day 3, individual patients 1B-6B
[12] = 0.25 mpk, Day 8, individual patients 1B-6B
[13] = 0.25 mpk, Week 2, individual patients 1B-6B

O=c1[nH]c(=O)n([C@@H]2O[C@H](CO)[C@@H](O)[C@@H]2F)cc1I [FIAU, 1-(2'-deoxy-2'-fluoro-β-D-arabinofuranosyl)-5-iodouracil]
HBV DNA Polymerase (cpm) ([1]; 0.1 mpk, Day 8, individual patients 1A-6A): 119 cpm and 550 cpm and 843 cpm and 164 cpm and 145 cpm and 169 cpm | HBV DNA ([1]; 0.1 mpk, Month 1 (follow-up), individual patients 1A-6A): 4.3 pg/mL and 4.8 pg/mL and 34.2 pg/mL and 4.4 pg/mL and 18.6 pg/mL and 138.5 pg/mL | HBV DNA ([1]; 0.1 mpk, Month 2 (follow-up), individual patients 1A-6A): 13.8 pg/mL and 11.7 pg/mL and 58.4 pg/mL and 5.9 pg/mL and 26.1 pg/mL and 172.9 pg/mL | HBV DNA [1, 6]: 9.3 pg/mL and 94.5 pg/mL and 223.2 pg/mL and 7.3 pg/mL and 17.9 pg/mL and 25.2 pg/mL | HBV DNA Polymerase (cpm) [1, 6]: 90 cpm and 507 cpm and 977 cpm and 118 cpm and 136 cpm and 142 cpm | HBV DNA [1, 7]: 6.4 pg/mL and 42.2 pg/mL and 122.1 pg/mL and 3.2 pg/mL and 9.0 pg/mL and 22.8 pg/mL | HBV DNA Polymerase (cpm) [1, 7]: 144 cpm and 360 cpm and 303 cpm and 69 cpm and 86 cpm and 148 cpm | HBV DNA [1, 8]: 0.0 pg/mL and 31.4 pg/mL and 78.3 pg/mL and 2.5 pg/mL and 7.4 pg/mL and 21.8 pg/mL | HBV DNA Polymerase (cpm) [1, 8]: 93 cpm and 205 cpm and 310 cpm and 74 cpm and 99 cpm and 165 cpm | HBV DNA [1, 9]: 4.1 pg/mL and 42.4 pg/mL and 76.1 pg/mL and 8.7 pg/mL and 21.9 pg/mL and 67.9 pg/mL | HBV DNA Polymerase (cpm) [1, 9]: 84 cpm and 368 cpm and 657 cpm and 169 cpm and 127 cpm and 324 cpm | Mean % change of HBV DNA at Week 4 of FIAU ([1]; 0.1 mpk): -88% | mean reduction of HBV DNA serum level from initial levels at Week 4 ([1]; 0.25 mpk): 84% | patients who "sero-converted" (failed to exhibit hepatitis B surface antigen) ([1]; 0.25 mpk): 2 of 6 | Number HBeAg-negative at latest follow-up ([1]; 0.25 mpk, 6 patients with 1 month follow-up): 2 | HBV DNA [1, 10]: 975.8 pg/mL and 63.9 pg/mL and 799.1 pg/mL and 196.3 pg/mL and 110.3 pg/mL and 141.1 pg/mL | HBV DNA Polymerase (cpm) [1, 10]: 43,752 cpm and 835 cpm and 10,833 cpm and 2,752 cpm and 2,454 cpm and 7,422 cpm | HBV DNA [1, 11]: 742.7 pg/mL and 23 pg/mL and 472.3 pg/mL and 103.5 pg/mL and 40.4 pg/mL and 79.9 pg/mL | HBV DNA Polymerase (cpm) [1, 11]: 7,841 cpm and 182 cpm and 2,115 cpm and 1,302 cpm and 506 cpm and 1,482 cpm | HBV DNA [1, 12]: 718.9 pg/mL and 17.5 pg/mL and 204.2 pg/mL and 47.1 pg/mL and 15.9 pg/mL and 60.7 pg/mL | HBV DNA Polymerase (cpm) [1, 12]: 5,129 cpm and 81 cpm and 1,481 cpm and 213 cpm and 131 cpm and 772 cpm | HBV DNA ([1]; 0.25 mpk, Month 1 (follow-up), individual patients 1B-6B): 4.9 pg/mL and 23.4 pg/mL and 100.6 pg/mL and 242.5 pg/mL and 2.7 pg/mL | HBV DNA [1, 13]: 492.9 pg/mL and 8.0 pg/mL and 182.6 pg/mL and 32.4 pg/mL and 9.3 pg/mL and 26.6 pg/mL | HBV DNA Polymerase (cpm) [1, 13]: 3,395 cpm and 129 cpm and 2,752 cpm and 105 cpm and 45 cpm and 260 cpm | HBV DNA Polymerase (cpm) ([1]; 0.25 mpk, Week 3, individual patients 1B-3B): 2,012 cpm and 63 cpm and 1,602 cpm | HBV DNA ([1]; 0.25 mpk, Week 3, individual patients 1B-6B): 373.2 pg/mL and 10.6 pg/mL and 68.3 pg/mL and 31.1 pg/mL and 8.3 pg/mL and 44.2 pg/mL | HBV DNA Polymerase (cpm) ([1]; 0.25 mpk, Week 4, individual patients 1B-3B): 834 cpm and 42 cpm and 1,076 cpm | HBV DNA ([1]; 0.25 mpk, Week 4, individual patients 1B-6B): 237.9 pg/mL and 7.2 pg/mL and 69.6 pg/mL and 34.0 pg/mL and 7.9 pg/mL and 41.7 pg/mL | HBV DNA ([1]; 0.25 mpk, Week 5 (after 4-week treatment), individual patients 1B-6B): 376.3 pg/mL and 24.1 pg/mL and 6.4 pg/mL and 89.9 pg/mL and 6.8 pg/mL | Mean % change of HBV DNA at Week 4 of FIAU ([1]; 0.25 mpk): -84% | reduction of the initial HBV DNA polymerase level ([1]; within the first few days, FIG. 20): 80-90% | days on which mild fatigue was experienced ([2]; 0.05 mpk, patient 1C): Day 8 | days on which mild fatigue was experienced ([2]; 0.1 mpk, individual patients (footnotes a-d: 1A, 2A, 3A, 6A)): Days 3, 8, 14, 21, 28, and Week 5; also recorded: Days 7, 14, and 18 | days on which mild nausea was experienced ([2]; 0.1 mpk, patient 6A): Days 3, 7, 14, and 21 | days on which mild fatigue was experienced ([2]; 0.25 mpk, individual patients (footnotes e, g: 4B, 6B)): Days 14, 21, 28, Week 5, and Month 2 | days on which mild nausea was experienced ([2]; 0.25 mpk, patient 5B): Day 3 | EC90 [3]: ~50 nM | EC90 [4]: ~500 nM | CC50 [5]: ~10000 nM
